Results: patent publication US12514935B2, “Nanocarrier systems for imaging and delivery of active agents” (Kansas State University Research Foundation, priority 2018, dated 2026)

Key:
[1] = test system: MCF-7 induced solid tumor model; assay: In vivo anti-tumor therapy; parameters: species or system NU/NU nude mice
Method: The anti-tumor efficacy of DOX@NKsomes was determined along with free DOX and unloaded NKsomes (aka “empty” NKsomes) using MCF-7 induced solid tumor model in immunodeficient NU/NU nude mice (n=3). In brief, 1×10^6 MCF-7 cells in PBS was injected subcutaneously into the hind rear flank region of the mice and the tumor growth is monitored periodically. When the tumor size reached 4-5 mm, animals received 4 cycles of drug treatment at Day 1, 4, 7 and 10 [DOX@NKsomes and free DOX (equivalent DOX concentration of 5 mg/kg)] up to 3 weeks. Control groups were also maintained without any treatment and bare NKsomes (10 mg/kg). During the study, body weight and tumor volume of the animal groups were monitored periodically to assess the therapeutic effects. The tumor volume (V) was determined using V=L×W2/2, where L=length of the tumor and W=width of the tumor. At the end of the study, animals were euthanized, collected tumors and measured its size and weight. Further, the tumor tissues were embedded in OCT, cryosectioned and subjected to immunofluorescence for the qualitative accumulation of NKsomes in tumor tissues by assessing the NKM protein marker (CD 56).

[2] = test system: MCF-7 cells; assay: MTT assay; format: cell-based, human; details: MCF-7, DOX 0.5-15 μM, 24 h
Method: (§1) For MTT analysis, MCF-7 cells and NHost cells were treated with NKsomes with different DOX concentration along with free DOX and bare NKsomes. In brief, 2×10^4 cells per well in the respective medium were seeded in a 96-well plate and incubated for 24 h. While the cell reaches 80% confluence, the media was replaced with different DOX concentration of free DOX and NKsomes (0.5, 1.5, 3, 5, 10 and 15 uM) and incubated for additional 24 h. Control cells were maintained without DOX treatment. After incubation, MTT dye was added according to the manual instruction and further incubated for 3 h. The insoluble formation crystals were solubilized using DMSO, and the absorbance was read at 590 and 630 nm using microplate reader (BioTek, Synergy H1 Hybrid reader).

[3] = test system: NHost cells; assay: MTT assay; format: cell-based, human; details: DOX 0.5-15 μM, 24 h
Method: as §1

[4] = test system: THP-1 cells; assay: In vitro immunogenicity cytokine release assay (ELISA); format: cell-based, human; details: THP-1, 24 h incubation
Method: The immunogenicity of NKsomes in THP-1 cells were tested for its inflammatory response using a cytokine release assay. In brief, 7.5×10^5 THP-1 cells were seeded in 12-well plate and treated with isolated NKM (100 μg/mL), NKsomes (100 μg/mL), Free DOX (5 μg/mL), DOX@NKsomes (equivalent DOX load) and Bare liposomes (100 μg/mL) for 24 h incubation. Positive (LPS, 3 μg/mL) and negative controls were maintained for assessing pro-inflammatory cytokines in THP-1 cells. The treated cell culture supernatants were collected, centrifuged to remove cell debris, aliquot and stored at −20° C. until needed. Samples were thawed and used for analyzing pro-inflammatory cytokines, IL-1β (0.8 pg/ml), IL-6 (0.4 pg/mL) and TNF-α (0.7 pg/mL) using quantitative enzyme-linked immunosorbent assay KIT (ELISA) (R&D Systems, Inc. Minneapolis, MN) as recommended by the manufacturer. Sample […] was measured at 450 nm with the wavelength correction at 540 nm using Synergy H1 hybrid microplate reader (BioTek Instruments Inc. VT).

[5] = test system: MCF-7 cells; assay: Cell cycle analysis (propidium iodide, FACS); format: cell-based, human; details: MCF-7, DOX 5 μM, 12 h
Method: (§2) The in vitro cytotoxicity of DOX@NKsome and the equivalent Free DOX were investigated against MCF-7 cells and NHost using a cell cycle analysis and an MTT assay. For cell cycle analysis, 1×10^6 cells were treated with 5 μM of Free DOX, equivalent DOX@NKsomes and bare NKsomes (equivalent to DOX-loaded) for 12 h. After incubation, cells were harvested, fixed in 70% ethanol overnight, washed with PBS twice and then followed propidium iodide staining. Further, the samples were analyzed in FACS Calibur for cell cycle analysis.

[6] = test system: NHost; assay: Cell cycle analysis (propidium iodide, FACS); format: cell-based, human; details: DOX 5 μM, 12 h
Method: as §2

[7] = test system: THP-1 cells; assay: In vitro cytokine release assay of BNc; format: cell-based, human; details: THP-1, 100 μg/mL (LPS 3 μg/mL), 24 h
Method: The immunogenicity of the prepared BNc along with the bare PLGA NP were tested for its immunoregulatory potential using standard cytokine release assay. In brief, 8×10^5 THP-1 cells were seeded in a 12-well plate and treated with bare PLGA NP (100 μg/mL), NKM (100 μg/mL), Gd-lipid (100 μg/mL) and BNc (100 μg/mL) at 37° C. for 24 h. After 24 h incubation, cell culture supernatants were collected, centrifuged, removed cell debris and stored at −20° C. as small aliquots. For cytokine assay, samples were thawed and analyzed for pro-inflammatory cytokines, IL-1β (LOD: 1.7 pg/ml), IL-6 (LOD: 1.5 pg/mL), and TNF-α (LOD: 1 pg/mL) using Magnetic Human Cytokine Multiplex Assays Kit (R&D Systems, Inc. Minneapolis, MN) in Luminex MagPix® instrument (Millipore Inc.) as per the manufacturer recommendations. For positive control, cells were dosed with 3 μg/mL of lipopolysaccharide (LPS) for 24 h.

| Compound | tumor inhibition rate (IR %) ([1]; DOX 5 mg/kg or bare NKsomes 10 mg/kg, Day 1, 4, 7, 10, from tumor weight) [%] | average tumor weight ([1]; end of study) [g] | tumor volume change ([1]; end of treatment period) | in vitro cytotoxicity (MTT) [2] | in vitro cytotoxicity (MTT) [3] | immunogenicity (pro-inflammatory cytokines) [4] | G1 fraction [5] [%] | G2 fraction [5] [%] | G1 fraction [6] [%] | G2 fraction [6] [%] | immunogenicity (IL-1β, IL-6, TNF-α release) [7] |
| --- | --- | --- | --- | --- | --- | --- | --- | --- | --- | --- | --- |
| COc1cccc2c1C(=O)c1c(O)c3c(c(O)c1C2=O)C[C@@](O)(C(=O)CO)C[C@@H]3O[C@H]1C[C@H](N)[C@H](O)[C@H](C)O1 [Free DOX, doxorubicin] | 63.69 | 0.3 ± 0.04 | significant reduction in tumor volume | Dose-dependent cytotoxicity | superior toxicity | little elevation of IL-10 and TNF-α levels | 53 | 25 | 53.3 | 23.6 |  |
| lipopolysaccharide [LPS] |  |  |  |  |  |  |  |  |  |  | elevated levels of IL-1β, IL-6, and TNF-α |
